Test [1] has as its target human GLP-1 receptor (hGLP-1R) (Homo sapiens, UniProt P43220). Put plainly: cAMP production (HTRF) in CHO cells expressing hGLP-1R. It is filed as cell-based. Also noted: expressed in transfected cells. Conditions: for EC50: geometric mean, read-out: hGLP-1R EC50; for % Relative Potency Ratio: % GLP-1R activity relative to GLP-1 / % GlucR activity relative to glucagon. The procedure, abridged: (§1)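 Potency values represent EC50 from 4-parameter logistic curves of HTRF % Delta F signal. Receptor-expressing CHO cells (hGCGR 2×10^5 cells/mL, hGLP-1R 1×10^5 cells/mL) were exposed for 30 min at room temperature before two-step cAMP detection.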
Background: Changes in cAMP serve as a functional read-out for many G protein-coupled receptors.

Test [2] has as its target human glucagon receptor (hGCGR) (Homo sapiens, UniProt P47871). Put plainly: cAMP production (HTRF) in CHO cells expressing hGCGR. It is filed as cell-based. The arrangement: expressed in transfected cells. Conditions: geometric mean, read-out: hGluc-R EC50. The gist of the method: as §1
The mark [3] stands for this setting: Table 6, peptides modified at position 17, cAMP in CHO hGLP-1R cells.
The mark [4] stands for this setting: Table 6, peptides modified at position 17, cAMP in CHO hGCGR cells.
Setting [5] is: Table 7, peptides modified at position 20, cAMP in CHO hGLP-1R cells.
Where [6] appears, read: Table 7, peptides modified at position 20, cAMP in CHO hGCGR cells.

Where two headings read alike, the source gives them in different places. Starred links: 1 amine or outer side, 2 acyl side, 3 side chain; linkers in the order of their positions; H or OH if unused. Non-standard residues stand in square brackets, D forms with d. Residues, ends and D or L forms follow the SMILES beside them. Groups on a side chain read outwards from the residue. *: point of attachment. C20 diacid = O=C(O)CCCCCCCCCCCCCCCCCCC(=O)*; C18 diacid = O=C(O)CCCCCCCCCCCCCCCCC(=O)*; Dip = N[C@H](C(=O)O)C(c1ccccc1)c1ccccc1; γGlu = O=C(O)[C@H](CCC(=O)[*:2])N[*:1]; Palmitoyl = CCCCCCCCCCCCCCCC(=O)*; αMeF = C[C@](N)(Cc1ccccc1)C(=O)O; NMeQ = CN[C@@H](CCC(N)=O)C(=O)O; PEG2 = NCCOCCOCCC(=O)O; AEEA = NCCOCCOCC(=O)O; Aib = CC(C)(N)C(=O)O Bounds are passed on as bounds.

Chain of human GLP-1 receptor (hGLP-1R) (P43220 24-463): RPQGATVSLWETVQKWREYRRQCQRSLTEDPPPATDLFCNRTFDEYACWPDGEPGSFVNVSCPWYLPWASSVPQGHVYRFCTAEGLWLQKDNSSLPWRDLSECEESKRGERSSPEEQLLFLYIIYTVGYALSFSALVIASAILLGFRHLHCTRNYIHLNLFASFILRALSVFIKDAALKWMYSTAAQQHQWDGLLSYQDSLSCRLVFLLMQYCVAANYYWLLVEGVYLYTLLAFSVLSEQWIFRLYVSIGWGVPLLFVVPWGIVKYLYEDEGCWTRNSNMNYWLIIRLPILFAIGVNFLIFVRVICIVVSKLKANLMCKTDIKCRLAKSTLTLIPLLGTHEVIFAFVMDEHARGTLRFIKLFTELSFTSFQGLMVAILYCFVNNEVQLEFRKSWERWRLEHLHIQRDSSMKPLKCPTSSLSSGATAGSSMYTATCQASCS
Chain of human glucagon receptor (hGCGR) (P47871 26-477): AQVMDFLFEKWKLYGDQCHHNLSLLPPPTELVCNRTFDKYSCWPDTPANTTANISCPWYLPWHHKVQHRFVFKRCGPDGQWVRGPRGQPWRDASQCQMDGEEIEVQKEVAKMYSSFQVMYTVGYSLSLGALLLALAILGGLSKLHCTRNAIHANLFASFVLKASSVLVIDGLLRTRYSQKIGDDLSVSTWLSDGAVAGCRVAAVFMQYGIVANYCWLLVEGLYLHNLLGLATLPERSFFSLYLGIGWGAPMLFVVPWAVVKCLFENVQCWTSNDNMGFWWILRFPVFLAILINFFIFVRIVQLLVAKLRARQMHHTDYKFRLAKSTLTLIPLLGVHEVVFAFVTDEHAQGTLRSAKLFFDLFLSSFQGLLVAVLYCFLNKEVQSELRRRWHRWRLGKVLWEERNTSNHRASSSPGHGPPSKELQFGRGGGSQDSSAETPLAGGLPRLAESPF

One may read the EC50 as the concentration needed to bring the measured effect to its halfway point. For the compound `CC(C)C[C@H](NC(=O)[C@H](Cc1c[nH]c2ccccc12)NC(=O)[C@H](CCCNC(=N)N)NC(=O)[C@@H](NC(=O)[C@H](Cc1ccccc1)NC(=O)[C@H](CC(=O)O)NC(=O)[C@H](CCC(N)=O)NC(=O)[C@H](C)NC(=O)[C@H](CCCNC(=N)N)NC(=O)[C@H](CCCCNC(=O)COCCOCCNC(=O)COCCOCCNC(=O)CC[C@H](NC(=O)CCCCCCCCCCCCCCCCCCC(=O)O)C(=O)O)NC(=O)[C@@H](NC(=O)[C@H](CC(=O)O)NC(=O)[C@H](CC(C)C)NC(=O)[C@](C)(Cc1ccccc1)NC(=O)[C@H](CCCCN)NC(=O)[C@H](CO)NC(=O)[C@@H](NC(=O)[C@H](CC(=O)O)NC(=O)[C@H](CO)NC(=O)[C@@H](NC(=O)[C@H](Cc1ccccc1)NC(=O)[C@@H](NC(=O)CNC(=O)[C@H](CCC(N)=O)NC(=O)C(C)(C)NC(=O)[C@@H](N)Cc1c[nH]cn1)[C@@H](C)O)[C@@H](C)O)C(C)C)[C@@H](C)O)C(C)C)C(=O)N[C@@H](CC(C)C)C(=O)N[C@@H](CCCNC(=N)N)C(=O)NC(C)(C)C(=O)N[C@@H](CCCCN)C(N)=O` [Peptide 496] (H-H[Aib]QGTFTSDVSK[αMeF]LDTK([AEEA-AEEA-γGlu-C20 diacid])RAQDFVRWLLR[Aib]K-NH2; N-terminus assumed), the figures for the EC50 in test [1] (setting [3]) and in test [2] (setting [4]) were 0.0649 nM and 0.482 nM, respectively. The “% Relative Potency Ratio” value in test [1] (Table 6) came out at 14.7.
Consider `CC[C@H](C)[C@H](NC(=O)[C@H](Cc1c[nH]c2ccccc12)NC(=O)[C@H](CCC(=O)O)NC(=O)[C@@H](NC(=O)[C@](C)(Cc1ccccc1)NC(=O)[C@H](CC(=O)O)NC(=O)[C@H](CCCCNC(=O)COCCOCCNC(=O)COCCOCCNC(=O)CC[C@H](NC(=O)CCCCCCCCCCCCCCCCCCC(=O)O)C(=O)O)NC(=O)[C@H](C)NC(=O)[C@H](C)NC(=O)[C@H](CCCNC(=N)N)NC(=O)[C@H](CO)NC(=O)[C@H](CC(=O)O)NC(=O)[C@H](CC(C)C)NC(=O)[C@](C)(Cc1ccccc1)NC(=O)[C@H](CCCCN)NC(=O)[C@H](CO)NC(=O)[C@@H](NC(=O)[C@H](CC(=O)O)NC(=O)[C@H](CO)NC(=O)[C@@H](NC(=O)[C@](C)(Cc1ccccc1)NC(=O)[C@H](CO)NC(=O)CNC(=O)[C@H](Cc1c[nH]cn1)NC(=O)C(C)(C)NC(=O)[C@@H](N)Cc1c[nH]cn1)[C@@H](C)O)C(C)C)C(C)C)C(=O)N[C@@H](C)C(=O)N[C@@H](CC(N)=O)C(=O)N[C@H](C(N)=O)[C@@H](C)O` [Peptide 216] (H-H[Aib]HGS[αMeF]TSDVSK[αMeF]LDSRAAK([AEEA-AEEA-γGlu-C20 diacid])D[αMeF]VEWIANT-NH2), for which the EC50 in test [1] (setting [5]) was determined as 18.1 nM; in test [2] (setting [6]), 5.67 nM. Also, in test [1] (Table 7), the “% Relative Potency Ratio” value worked out at 0.6.
`CC[C@H](C)[C@H](NC(=O)[C@H](Cc1c[nH]c2ccccc12)NC(=O)[C@H](CCC(N)=O)NC(=O)[C@@H](NC(=O)[C@H](Cc1ccccc1)NC(=O)[C@H](CC(=O)O)NC(=O)[C@H](CCCCNC(=O)COCCOCCNC(=O)COCCOCCNC(=O)CC[C@H](NC(=O)CCCCCCCCCCCCCCCCCCC(=O)O)C(=O)O)NC(=O)[C@H](C)NC(=O)[C@H](C)NC(=O)[C@H](CCCNC(=N)N)NC(=O)[C@H](CO)NC(=O)[C@H](CC(=O)O)NC(=O)[C@H](CC(C)C)NC(=O)[C@](C)(Cc1ccccc1)NC(=O)[C@H](CCCCN)NC(=O)[C@H](CO)NC(=O)[C@@H](NC(=O)[C@H](CC(=O)O)NC(=O)[C@H](CO)NC(=O)[C@@H](NC(=O)[C@](C)(Cc1ccccc1)NC(=O)[C@H](CO)NC(=O)CNC(=O)[C@H](Cc1c[nH]cn1)NC(=O)C(C)(C)NC(=O)[C@@H](N)Cc1c[nH]cn1)[C@@H](C)O)C(C)C)C(C)C)C(=O)N[C@@H](C)C(=O)N[C@@H](CC(N)=O)C(=O)N[C@H](C(N)=O)[C@@H](C)O` [Peptide 214] (H-H[Aib]HGS[αMeF]TSDVSK[αMeF]LDSRAAK([AEEA-AEEA-γGlu-C20 diacid])DFVQWIANT-NH2): the EC50 in test [1] (setting [5]) was 2.34 nM; in test [2] (setting [6]), 0.81 nM. For the same compound, the “% Relative Potency Ratio” value in test [1] (Table 7) stood at 0.7.
On to `CC[C@H](C)[C@H](NC(=O)[C@H](Cc1c[nH]c2ccccc12)NC(=O)[C@H](CCCCNC(=O)CC[C@H](NC(=O)CCCCCCCCCCCCCCCCC(=O)O)C(=O)O)NC(=O)[C@@H](NC(=O)[C@H](Cc1ccccc1)NC(=O)[C@H](CC(=O)O)NC(=O)[C@H](CCC(N)=O)NC(=O)[C@H](C)NC(=O)[C@H](C)NC(=O)[C@H](CCCNC(=N)N)NC(=O)[C@H](CO)NC(=O)[C@H](CC(=O)O)NC(=O)[C@H](CC(C)C)NC(=O)[C@@H](NC(=O)[C@H](CCCCN)NC(=O)[C@H](CO)NC(=O)[C@@H](NC(=O)[C@H](CC(=O)O)NC(=O)[C@H](CO)NC(=O)[C@@H](NC(=O)[C@H](Cc1ccccc1)NC(=O)[C@H](CO)NC(=O)CNC(=O)[C@H](CCC(N)=O)NC(=O)C(C)(C)NC(=O)[C@@H](N)Cc1c[nH]cn1)[C@@H](C)O)C(C)C)C(c1ccccc1)c1ccccc1)C(C)C)C(=O)N[C@@H](C)C(=O)N[C@@H](CC(N)=O)C(=O)N[C@H](C(N)=O)[C@@H](C)O` [Peptide 343] (H-H[Aib]QGSFTSDVSK[Dip]LDSRAAQDFVK([γGlu-C18 diacid])WIANT-NH2; N-terminus assumed), for which the “% Relative Potency Ratio” value in test [1] was 4.2. In addition, the EC50 is 0.0586 nM in test [1] (cAMP, CHO cells, 0.1% BSA) and 0.126 nM in test [2] (cAMP, CHO cells, 0.1% BSA).
`CC[C@H](C)[C@H](NC(=O)[C@H](CO)NC(=O)[C@H](CCC(N)=O)NC(=O)[C@@H](NC(=O)[C@](C)(Cc1ccccc1)NC(=O)[C@H](CC(=O)O)NC(=O)[C@H](CCCCNC(=O)COCCOCCNC(=O)COCCOCCNC(=O)CC[C@H](NC(=O)CCCCCCCCCCCCCCCCC(=O)O)C(=O)O)NC(=O)[C@H](C)NC(=O)[C@H](C)NC(=O)[C@H](CCCNC(=N)N)NC(=O)[C@H](CO)NC(=O)[C@H](CC(=O)O)NC(=O)[C@H](CC(C)C)NC(=O)[C@](C)(Cc1ccccc1)NC(=O)[C@H](CCCCN)NC(=O)[C@H](CO)NC(=O)[C@@H](NC(=O)[C@H](CC(=O)O)NC(=O)[C@H](CO)NC(=O)[C@@H](NC(=O)[C@](C)(Cc1ccccc1)NC(=O)[C@H](CO)NC(=O)CNC(=O)[C@H](Cc1c[nH]cn1)NC(=O)C(C)(C)NC(=O)[C@@H](N)Cc1c[nH]cn1)[C@@H](C)O)C(C)C)C(C)C)C(=O)N[C@@H](C)C(=O)N[C@@H](CC(N)=O)C(=O)N[C@H](C(N)=O)[C@@H](C)O` [Peptide 243] (H-H[Aib]HGS[αMeF]TSDVSK[αMeF]LDSRAAK([AEEA-AEEA-γGlu-C18 diacid])D[αMeF]VQSIANT-NH2): the EC50 was 0.0593 nM in test [1] (setting [5]) and 0.0506 nM in test [2] (setting [6]). Moreover, in test [1] (Table 7), the “% Relative Potency Ratio” value turned out to be 1.7.
`CCCCCCCCCCCCCCCC(=O)N[C@@H](CCC(=O)N[C@@H](CCC(=O)NCCOCCOCCC(=O)NCCOCCOCCC(=O)NCCCC[C@H](NC(=O)[C@H](CO)NC(=O)[C@H](CC(=O)O)NC(=O)[C@H](CC(C)C)NC(=O)[C@@H](NC(=O)[C@H](CCCCN)NC(=O)[C@H](CO)NC(=O)[C@@H](NC(=O)[C@H](CC(=O)O)NC(=O)[C@H](CO)NC(=O)[C@@H](NC(=O)[C@](C)(Cc1ccccc1)NC(=O)[C@H](CO)NC(=O)CNC(=O)[C@H](CCC(N)=O)NC(=O)[C@H](CO)NC(=O)[C@@H](N)Cc1c[nH]cn1)[C@@H](C)O)C(C)C)[C@@H](C)CC)C(=O)N[C@@H](C)C(=O)N[C@@H](C)C(=O)N[C@@H](CCC(N)=O)C(=O)N[C@@H](CC(=O)O)C(=O)N[C@@](C)(Cc1ccccc1)C(=O)N[C@H](C(=O)N[C@@H](CCC(N)=O)C(=O)N[C@H](C(=O)N[C@H](C(=O)N[C@@H](C)C(=O)N[C@@H](CC(N)=O)C(N)=O)[C@@H](C)CC)[C@@H](C)CC)C(C)C)C(=O)O)C(=O)O` [Peptide 112] (H-HSQGS[αMeF]TSDVSKILDSK([PEG2-PEG2-γGlu-γGlu-Palmitoyl])AAQD[αMeF]VQIIAN-NH2): the EC50 in test [1] (setting [3]) was 0.00336 nM; in test [2] (setting [4]), 0.00269 nM. Also, the “% Relative Potency Ratio” value in test [1] (Table 6) came out at 1.6.
Take `CC[C@H](C)[C@H](NC(=O)C(C)(C)NC(=O)[C@H](CCC(N)=O)NC(=O)[C@@H](NC(=O)[C@](C)(Cc1ccccc1)NC(=O)[C@H](CC(=O)O)NC(=O)[C@H](CCCCNC(=O)COCCOCCNC(=O)COCCOCCNC(=O)CC[C@H](NC(=O)CCCCCCCCCCCCCCCCC(=O)O)C(=O)O)NC(=O)[C@H](C)NC(=O)[C@H](C)NC(=O)[C@H](CCCNC(=N)N)NC(=O)[C@H](CO)NC(=O)[C@H](CC(=O)O)NC(=O)[C@H](CC(C)C)NC(=O)[C@](C)(Cc1ccccc1)NC(=O)[C@H](CCCCN)NC(=O)[C@H](CO)NC(=O)[C@@H](NC(=O)[C@H](CC(=O)O)NC(=O)[C@H](CO)NC(=O)[C@@H](NC(=O)[C@](C)(Cc1ccccc1)NC(=O)[C@H](CO)NC(=O)CNC(=O)[C@H](CCC(N)=O)N(C)C(=O)[C@H](CO)NC(=O)[C@@H](N)Cc1c[nH]cn1)[C@@H](C)O)C(C)C)C(C)C)C(=O)N[C@@H](C)C(=O)N[C@@H](CC(N)=O)C(=O)N[C@H](C(N)=O)[C@@H](C)O` [Peptide 325] (H-HS[NMeQ]GS[αMeF]TSDVSK[αMeF]LDSRAAK([AEEA-AEEA-γGlu-C18 diacid])D[αMeF]VQ[Aib]IANT-NH2): the EC50 in test [1] (setting [5]) is 0.929 nM; in test [2] (setting [6]), more than 25.5 nM.

Values taken from US20250353891A1 (MEDIMMUNE LIMITED, priority 2022, published 2025).
